Experiment [1] addresses T1, AHR (Homo sapiens, UniProt P35869).
T1 construct: U87 MG glioblastoma cells (ATCC #HTB-14) endogenously expressing AHR; endogenous in cells; host or cells: U87 MG glioblastoma cells (ATCC #HTB-14)
T1 sequence (P35869 11-848): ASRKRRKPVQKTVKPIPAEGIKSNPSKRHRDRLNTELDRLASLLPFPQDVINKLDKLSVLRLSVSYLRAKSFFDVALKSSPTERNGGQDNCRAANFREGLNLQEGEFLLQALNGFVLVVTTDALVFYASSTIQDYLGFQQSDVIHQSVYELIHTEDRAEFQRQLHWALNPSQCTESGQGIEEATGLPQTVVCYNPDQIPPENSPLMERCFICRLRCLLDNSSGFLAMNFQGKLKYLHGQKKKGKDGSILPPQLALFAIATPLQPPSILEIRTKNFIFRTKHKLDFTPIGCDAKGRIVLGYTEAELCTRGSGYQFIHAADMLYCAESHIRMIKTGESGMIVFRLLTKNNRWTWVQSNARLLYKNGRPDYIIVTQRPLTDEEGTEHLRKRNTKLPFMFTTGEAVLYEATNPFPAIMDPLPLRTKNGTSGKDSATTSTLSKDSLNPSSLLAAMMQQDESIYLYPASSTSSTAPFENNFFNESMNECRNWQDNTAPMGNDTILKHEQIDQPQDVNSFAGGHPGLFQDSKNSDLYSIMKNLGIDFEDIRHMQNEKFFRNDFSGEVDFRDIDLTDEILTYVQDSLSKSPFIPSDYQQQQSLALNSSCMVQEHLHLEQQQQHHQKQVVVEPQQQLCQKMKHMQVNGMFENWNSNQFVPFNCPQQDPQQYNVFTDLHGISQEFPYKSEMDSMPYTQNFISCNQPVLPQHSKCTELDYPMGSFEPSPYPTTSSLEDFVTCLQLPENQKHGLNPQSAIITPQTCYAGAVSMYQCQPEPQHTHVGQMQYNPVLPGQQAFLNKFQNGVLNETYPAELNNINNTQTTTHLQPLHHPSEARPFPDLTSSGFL
In words: In vitro assay 1: antagonism in human cell line (AHR transactivation, firefly luciferase reporter, kynurenic acid prestimulated). In kind it is cell-based. As to conditions: AHR Antagonism Human IC50 [M]. As for the experimental part: Examples were tested in selected biological assays one or more times. When tested more than once, data are reported as either average values or as median values, wherein • the average value, also referred to as the arithmetic mean value, represents the sum of the values obtained divided by the number of times tested, and • the median value represents the middle number of the group of values when ranked in ascending or descending order. If the number of values in the data set is odd, the median is the middle value. If the number of values in the data set is even, the median is the arithmetic mean of the two middle values.
Transactivation assays were carried out in U87 MG glioblastoma cells (ATCC #HTB-14) endogenously expressing AHR. In addition the cells were stably transfected with an AHR inducible firefly luciferase reporter gene construct that carried AHR-binding sites (DRE) in its promoter and a renilla reporter gene construct with constitutively active promoter. Kynurenic acid is an endogenous AHR activating ligand and was used to prestimulate test cells prior to testing the antagonistic properties of compounds.
As positive inhibition control cells supplemented with 150 μM kynurenic acid were incubated in presence of 5 μM Staurosporin. Normalization was done by positive and negative controls.
Firefly luciferase and Renilla activity was determined by the DualGlo Luciferase Assay System (Promega, #2920). Renilla activity was used to assess toxic effects of compounds.
(In general: In a reporter assay the amount or activity of a reporter protein is the signal.)

For experiment [2], the target named is T2, AHR (Mus musculus, UniProt P30561).
T2 sequence (P30561 1-848 P471L/N533S/M589L): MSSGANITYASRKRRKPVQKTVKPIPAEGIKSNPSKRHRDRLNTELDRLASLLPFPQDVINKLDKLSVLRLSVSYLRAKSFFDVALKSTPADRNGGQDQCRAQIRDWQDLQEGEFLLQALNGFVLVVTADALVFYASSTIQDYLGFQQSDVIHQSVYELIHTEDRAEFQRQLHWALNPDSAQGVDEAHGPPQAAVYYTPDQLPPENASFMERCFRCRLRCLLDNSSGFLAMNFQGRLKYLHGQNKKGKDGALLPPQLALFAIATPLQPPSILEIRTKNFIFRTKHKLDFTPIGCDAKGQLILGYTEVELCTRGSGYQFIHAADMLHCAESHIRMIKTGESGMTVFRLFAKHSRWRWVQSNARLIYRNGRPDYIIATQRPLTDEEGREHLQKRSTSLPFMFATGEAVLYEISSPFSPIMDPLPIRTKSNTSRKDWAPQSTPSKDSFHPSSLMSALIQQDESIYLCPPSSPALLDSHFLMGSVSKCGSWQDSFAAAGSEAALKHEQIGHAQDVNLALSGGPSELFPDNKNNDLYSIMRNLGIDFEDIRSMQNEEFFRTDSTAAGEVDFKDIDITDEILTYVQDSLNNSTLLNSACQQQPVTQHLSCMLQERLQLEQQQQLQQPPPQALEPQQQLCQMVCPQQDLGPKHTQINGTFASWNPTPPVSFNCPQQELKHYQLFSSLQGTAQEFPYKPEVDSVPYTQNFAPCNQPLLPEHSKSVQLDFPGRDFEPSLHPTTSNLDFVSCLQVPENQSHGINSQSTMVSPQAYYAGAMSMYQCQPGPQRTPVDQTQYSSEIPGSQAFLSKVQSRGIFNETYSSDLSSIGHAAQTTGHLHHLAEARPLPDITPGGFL
Description: In vitro assay 3: antagonism in mouse cell line (AHR transactivation, firefly luciferase reporter, kynurenic acid prestimulated). As to conditions: Hepa 1c1c7 cells, 200 μM kynurenic acid, 20 hours, firefly luciferase reporter, read-out: AHR Antagonism Mouse IC50. In kind it is cell-based. A digest of the protocol:
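Antagonism read as reduced firefly luciferase signal (SteadyGlo) from a stably transfected AHR/DRE reporter in a mouse line prestimulated with kynurenic acid. Data normalized to controls, the full-inhibition control being cells without kynurenic acid; multiple determinations given as average or median values.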

pIC50: −log10 of the molar value.

One may read the IC50 as the concentration that inhibits the measured activity by half. At AHR [1], `Cn1cc(-c2nc3c4ccccc4nc(NC4CCNC4=O)n3n2)cn1` (single isomer, unassigned) [Example 19, 3-{[2-(1-methyl-1H-pyrazol-4-yl)[1,2,4]triazolo[1,5-c]quinazolin-5-yl]amino}pyrrolidin-2-one] came in with an IC50 of over 2e-05 M.
Still for that read-out and setting: the value for `Cn1cc(-c2nc3c4ccccc4nc(NC4CNCCNC4=O)n3n2)cn1` (single isomer, unassigned) [Example 24, 6-{[2-(1-methyl-1H-pyrazol-4-yl)[1,2,4]triazolo[1,5-c]quinazolin-5-yl]amino}-1,4-diazepan-5-one] was over 4e-05 M; that for `CCNC(=O)C(CC)Nc1nc2ccccc2c2nc(-c3cccc(OC(F)(F)F)c3)nn12` (single isomer, unassigned) [Example 320, N-ethyl-2-({2-[3-(trifluoromethoxy)phenyl][1,2,4]triazolo[1,5-c]quinazolin-5-yl}amino)butanamide] was 1.21e-06 M; that for `O=C1NCCCC[C@H]1Nc1nc2ccccc2c2nc(-c3ccccc3)nn12` [Example 5, (3R)-3-[(2-phenyl[1,2,4]triazolo[1,5-c]quinazolin-5-yl)amino]azepan-2-one] was 3.4e-10 M.
The same measure, in the same setting: the value for `O=C1NCCCC[C@H]1Nc1nc2ccccc2c2nc(-c3ccccc3Cl)nn12` [Example 58, (3R)-3-{[2-(2-chlorophenyl)[1,2,4]triazolo[1,5-c]quinazolin-5-yl]amino}azepan-2-one] was 1.05e-08 M.
`O=C1NCCCC[C@H]1Nc1nc2ccccc2c2nc(-c3ccc(F)cc3)nn12` [Example 74, (3R)-3-{[2-(4-fluorophenyl)[1,2,4]triazolo[1,5-c]quinazolin-5-yl]amino}azepan-2-one] showed an IC50 on AHR [1] of 1.62e-10 M.
As for `COc1cccc(-c2nc3c4ccccc4nc(NC4CCN(C)C4=O)n3n2)c1` (stereo not shown) [Example 80, 3-{[2-(3-methoxyphenyl)[1,2,4]triazolo[1,5-c]quinazolin-5-yl]amino}-1-methylpyrrolidin-2-one], half-maximal inhibition at AHR [1] (IC50) required 2.53e-08 M.
Turning to `COc1cccc(-c2nc3c4ccccc4nc(NC4(C(N)=O)CCCC4)n3n2)c1` [Example 99, 1-{[2-(3-methoxyphenyl)[1,2,4]triazolo[1,5-c]quinazolin-5-yl]amino}cyclopentane-1-carboxamide], at AHR [1], the midpoint of inhibition, the IC50, lay at 6.78e-08 M.
On the same count and under the same terms, for `COc1cccc(-c2nc3c4ccc(C)cc4nc(N[C@@H]4CCCCNC4=O)n3n2)c1` [Example 145, (3R)-3-{[2-(3-methoxyphenyl)-8-methyl[1,2,4]triazolo[1,5-c]quinazolin-5-yl]amino}azepan-2-one] the value was 3.17e-08 M.
Regarding `Cc1ccc2c(c1)nc(N[C@@H]1CCCCNC1=O)n1nc(-c3cnn(C)c3)nc21` [Example 147, (3R)-3-{[8-methyl-2-(1-methyl-1H-pyrazol-4-yl)[1,2,4]triazolo[1,5-c]quinazolin-5-yl]amino}azepan-2-one], the IC50 against AHR [1] was 7.53e-07 M.
Compound `COc1cccc(-c2nc3c4ccc(F)cc4nc(N[C@H]4CCNC4=O)n3n2)c1` [Example 149, (3S)-3-{[8-fluoro-2-(3-methoxyphenyl)[1,2,4]triazolo[1,5-c]quinazolin-5-yl]amino}pyrrolidin-2-one] yielded a half-maximal inhibitory concentration (IC50) on AHR [1] of 1.81e-07 M.
Compound `O=C1NCCCC[C@H]1Nc1nc2cccc(Br)c2c2nc(-c3cccc(F)c3)nn12` [Example 163, (3R)-3-{[10-bromo-2-(3-fluorophenyl)[1,2,4]triazolo[1,5-c]quinazolin-5-yl]amino}azepan-2-one] gave an IC50 on AHR [1] of 2.14e-08 M.
On the same count and under the same terms, the value for `O=C1NCCCC[C@H]1Nc1nc2cccc(Cl)c2c2nc(-c3cccc(F)c3)nn12` [Example 167, (3R)-3-{[10-chloro-2-(3-fluorophenyl)[1,2,4]triazolo[1,5-c]quinazolin-5-yl]amino}azepan-2-one] was 6.39e-09 M.
Still for that read-out and setting: for `O=C1NCCCC[C@H]1Nc1nc2cccc(C(F)(F)F)c2c2nc(-c3cccc(F)c3)nn12` [Example 171, (3R)-3-{[2-(3-fluorophenyl)-10-(trifluoromethyl)[1,2,4]triazolo[1,5-c]quinazolin-5-yl]amino}azepan-2-one] the value was 6.2e-08 M.
Turning to `Cn1cc(-c2nc3c4c(C5CC5)cccc4nc(N[C@@H]4CCCCNC4=O)n3n2)cn1` [Example 177, (3R)-3-{[10-cyclopropyl-2-(1-methyl-1H-pyrazol-4-yl)[1,2,4]triazolo[1,5-c]quinazolin-5-yl]amino}azepan-2-one], at AHR [1], the IC50 amounted to 7.35e-07 M.
The compound `CCOc1ccccc1-c1nc2c3ccccc3nc(N[C@@H]3CCCCNC3=O)n2n1` [Example 198, (3R)-3-{[2-(2-ethoxyphenyl)[1,2,4]triazolo[1,5-c]quinazolin-5-yl]amino}azepan-2-one] returned an IC50 at AHR [1] of 1.82e-06 M.
Same read-out and setting: the value for `O=C1NCCCC[C@H]1Nc1nc2ccccc2c2nc(-c3ccc(F)cc3F)nn12` [Example 201, (3R)-3-{[2-(2,4-difluorophenyl)[1,2,4]triazolo[1,5-c]quinazolin-5-yl]amino}azepan-2-one] was 3.56e-10 M.
In turn, `Cn1cc(-c2nc3c4ccc(C(F)(F)F)cc4nc(N[C@@H]4CCCCNC4=O)n3n2)cn1` [Example 227, (3R)-3-{[2-(1-methyl-1H-pyrazol-4-yl)-8-(trifluoromethyl)[1,2,4]triazolo[1,5-c]quinazolin-5-yl]amino}azepan-2-one] yielded an IC50 on AHR [1] of 2.65e-06 M.
Same read-out and setting: for `Cn1cc(-c2nc3c4ccc(Br)cc4nc(N[C@@H]4CCCCNC4=O)n3n2)cn1` [Example 230, (3R)-3-{[8-bromo-2-(1-methyl-1H-pyrazol-4-yl)[1,2,4]triazolo[1,5-c]quinazolin-5-yl]amino}azepan-2-one] the value was 1.97e-06 M; for `COc1ccc(-c2nc3c4ccc(C5CC5)cc4nc(N[C@@H]4CCCCNC4=O)n3n2)cc1` [Example 251, (3R)-3-{[8-Cyclopropyl-2-(4-methoxyphenyl)[1,2,4]triazolo[1,5-c]quinazolin-5-yl]amino}azepan-2-one], 3.04e-07 M.
For orientation: pIC50 means the negative decadic logarithm of the IC50, by convention in mol/L. With `O=C1NCCNC[C@@H]1Nc1nc2c(Br)cccc2c2nc(-c3ccc(F)cc3)nn12` [Example 973, (6S)-6-{[7-bromo-2-(4-fluorophenyl)[1,2,4]triazolo[1,5-c]quinazolin-5-yl]amino}-1,4-diazepan-5-one], at AHR [2], the pIC50 was 8.08.
Consider `O=C1NCCNC[C@H]1Nc1nc2c(Br)cccc2c2nc(-c3ccc(Cl)cc3)nn12` [Example 977, (6R)-6-{[7-bromo-2-(4-chlorophenyl)[1,2,4]triazolo[1,5-c]quinazolin-5-yl]amino}-1,4-diazepan-5-one], for which the pIC50 on AHR [2] is 9.39.
